Source: patent US20100105031A1, “METHOD FOR PREDICTION OF THE EFFICACY OF VASCULARIZATION INHIBITOR” (Esai R & D Management Co., Ltd., priority 2005, published 2010)

Legend:
H526 [1] = assay: Example 3 antitumor effect, relative tumor volume, subcutaneously transplanted model (H526); format: in vivo, nude mouse; details: FIG. 2
Protocol: (§1) Human cancer cell lines AsPC-1 and H526 (both strains were purchased from ATCC) were cultured with RPMI1640 (containing 10% FBS) in a 5% CO2 incubator until they reached about 80% confluence. After culturing, cells from each strain were recovered with trypsin-EDTA by conventional procedures. The cells were suspended in phosphate buffer to prepare a cell suspension of 5×10^7 cells/ml. Subsequently, 0.1 ml of the cell suspension was subcutaneously transplanted on the lateral side of each nude mouse. After transplantation, when the tumor volume reached about 50-200 mm^3, administration of 5-(5-fluoro-2-oxo-1,2-dihydroindole-3-ylidenemethyl)-2,4-dimethyl-1H-pyrrole-3-carboxylic acid (2-diethylaminoethyl)amide (100 mg/kg, once a day, one week, oral administration) was started. The 5-(5-fluoro-2-oxo-1,2-dihydroindole-3-ylidenemethyl)-2,4-dimethyl-1H-pyrrole-3-carboxylic acid (2-diethylaminoethyl)amide was prepared based on the disclosure in WO 01/060814. The major axis and minor axis of tumor were measured with a Degimatic Caliper (Mitsutoyo). Then, tumor volume and relative tumor volume were calculated using the following formulas:
(§2) Tumor volume(TV)=tumor major axis(mm)×tumor minor axis^2(mm^2)/2
(§3) Relative tumor volume(RTV)=tumor volume on the measurement day/tumor volume on the starting day of administration

H526 [2] = assay: Antitumor effect in human cancer cell line subcutaneously transplanted model (H526); format: in vivo, nude mouse
From the text: (§4) Human cancer cell lines A375 (purchased from Dainippon Pharma Co., Ltd.), SEKI, HMV-1 (these two lines were purchased from JCRB cell bank, National Institute of Biomedical Innovation), FEM (granted from Dr. Fodstad, The Norwegian Radiumhospital Research Foundation), LOX (purchased from AntiCancer), AZ-521 (purchased from Japan Health Science Foundation), MDA-MB-468, DLD-1, HCT116, SW620, PC-3, DU145, AsPC-1, H526, MDA-MB-231, SK-Mel-2, Lovo and A431 (these 12 lines were purchased from ATCC) were cultured with RPMI1640 (containing 10% FBS) in a 5% CO2 incubator until they reached about 80% confluence. After culturing, cells from each line w ere recovered with trypsin-EDTA by conventional procedures. The cells were suspended in phosphate buffer solution to prepare a cell suspension of 1×10^8 cells/ml or 5×10^7 cells/ml. Subsequently, 0.1 ml of the cell suspension was subcutaneously transplanted on the lateral side of each nude mouse. After transplantation, when the tumor volume reached about 100-200 mm^3, administration of 4-(3-chloro-4-(cyclopropylaminocarbonyl)-aminophenoxy)-7-methoxy-6-quinolinecarboxamide was started (100 mg/kg; twice a day; one week; oral administration). […] The major axis and minor axis of tumor were measured with a Degimatic Caliper (Mitsutoyo). Then, tumor volume and ΔT/C were calculated using the following formulas: […]

LOX = assay: Antitumor effect in human cancer cell line subcutaneously transplanted model (LOX); format: in vivo, nude mouse
From the text: as §4

A431 = assay: Antitumor effect in human cancer cell line subcutaneously transplanted model (A431); format: in vivo, nude mouse
From the text: as §4

DU145 = assay: Antitumor effect in human cancer cell line subcutaneously transplanted model (DU145); format: in vivo, nude mouse
From the text: as §4

MDA-MB-231 = assay: Antitumor effect in human cancer cell line subcutaneously transplanted model (MDA-MB-231); format: in vivo, nude mouse
From the text: as §4

AZ-521 = assay: Antitumor effect in human cancer cell line subcutaneously transplanted model (AZ-521); format: in vivo, nude mouse
From the text: as §4

AsPC-1 [3] = assay: Example 3 antitumor effect, relative tumor volume, subcutaneously transplanted model (AsPC-1); format: in vivo, nude mouse; details: FIG. 2
Protocol: as §1, §2, §3

A375 = assay: Antitumor effect in human cancer cell line subcutaneously transplanted model (A375); format: in vivo, nude mouse
From the text: as §4

Lovo = assay: Antitumor effect in human cancer cell line subcutaneously transplanted model (Lovo); format: in vivo, nude mouse
From the text: as §4

MDA-MB-468 = assay: Antitumor effect in human cancer cell line subcutaneously transplanted model (MDA-MB-468); format: in vivo, nude mouse
From the text: as §4

SEKI = assay: Antitumor effect in human cancer cell line subcutaneously transplanted model (SEKI); format: in vivo, nude mouse
From the text: as §4

FEM = assay: Antitumor effect in human cancer cell line subcutaneously transplanted model (FEM); format: in vivo, nude mouse
From the text: as §4

DLD-1 = assay: Antitumor effect in human cancer cell line subcutaneously transplanted model (DLD-1); format: in vivo, nude mouse
From the text: as §4

SK-Mel-2 = assay: Antitumor effect in human cancer cell line subcutaneously transplanted model (SK-Mel-2); format: in vivo, nude mouse
From the text: as §4

HCT116 = assay: Antitumor effect in human cancer cell line subcutaneously transplanted model (HCT116); format: in vivo, nude mouse
From the text: as §4

PC-3 = assay: Antitumor effect in human cancer cell line subcutaneously transplanted model (PC-3); format: in vivo, nude mouse
From the text: as §4

HMV-1 = assay: Antitumor effect in human cancer cell line subcutaneously transplanted model (HMV-1); format: in vivo, nude mouse
From the text: as §4

SW620 = assay: Antitumor effect in human cancer cell line subcutaneously transplanted model (SW620); format: in vivo, nude mouse
From the text: as §4

AsPC-1 [4] = assay: Antitumor effect in human cancer cell line subcutaneously transplanted model (AsPC-1); format: in vivo, nude mouse
From the text: as §4

colorectal cancer = details: clinical trials; cited from earlier work
[5] = Compound 1 administration group
[6] = Melanoma, 100 mg/kg twice a day, one week, oral, day 8 vs day 1
[7] = class by intensity of antitumor effect (ΔT/C)
[8] = Compound 2 administration group, 100 mg/kg once a day, one week, oral

## COc1cc2nccc(Oc3ccc(NC(=O)NC4CC4)c(Cl)c3)c2cc1C(N)=O [Compound 1, 4-(3-chloro-4-(cyclopropylaminocarbonyl)aminophenoxy)-7-methoxy-6-quinolinecarboxamide]
H526 [1]; [5]
  tumor proliferation: delayed
H526 [2]; H526, Small cell lung cancer, 100 mg/kg twice a day, one week, oral, day 8 vs day 1
  ΔT/C: 22%
H526 [2]; H526, class by intensity of antitumor effect (ΔT/C)
  Classification: Proliferation line (cancer cell lines which showed 10%<ΔT/C were classified as proliferation lines)
LOX; [6]
  ΔT/C: 42%
LOX; [7]
  Classification: Proliferation line (cancer cell lines which showed 10%<ΔT/C were classified as proliferation lines)
A431; A431, Epidermoid carcinoma, 100 mg/kg twice a day, one week, oral, day 8 vs day 1
  ΔT/C: −8%
A431; A431, class by intensity of antitumor effect (ΔT/C)
  Classification: Rest line (cancer cell lines which showed −30%<ΔT/C<10% were classified as rest lines)
DU145; DU145, Prostate cancer, 100 mg/kg twice a day, one week, oral, day 8 vs day 1
  ΔT/C: −60%
DU145; DU145, class by intensity of antitumor effect (ΔT/C)
  Classification: Shrinkage line (Cancer cell lines which showed ΔT/C<−30% were classified as shrinkage lines)
MDA-MB-231; MDA-MB-231, Breast cancer, 100 mg/kg twice a day, one week, oral, day 8 vs day 1
  ΔT/C: −33%
MDA-MB-231; MDA-MB-231, class by intensity of antitumor effect (ΔT/C)
  Classification: Shrinkage line (Cancer cell lines which showed ΔT/C<−30% were classified as shrinkage lines)
AZ-521; AZ-521, Gastric cancer, 100 mg/kg twice a day, one week, oral, day 8 vs day 1
  ΔT/C: −57%
AZ-521; AZ-521, class by intensity of antitumor effect (ΔT/C)
  Classification: Shrinkage line (Cancer cell lines which showed ΔT/C<−30% were classified as shrinkage lines)
AsPC-1 [3]; [5]
  tumor proliferation: rested
A375; A375, Melanoma, 100 mg/kg twice a day, one week, oral, day 8 vs day 1
  ΔT/C: 26%
A375; A375, class by intensity of antitumor effect (ΔT/C)
  Classification: Proliferation line (cancer cell lines which showed 10%<ΔT/C were classified as proliferation lines)
Lovo; Large bowel cancer, 100 mg/kg twice a day, one week, oral, day 8 vs day 1
  ΔT/C: −11%
Lovo; [7]
  Classification: Rest line (cancer cell lines which showed −30%<ΔT/C<10% were classified as rest lines)
MDA-MB-468; MDA-MB-468, Breast cancer, 100 mg/kg twice a day, one week, oral, day 8 vs day 1
  ΔT/C: −53%
MDA-MB-468; MDA-MB-468, class by intensity of antitumor effect (ΔT/C)
  Classification: Shrinkage line (Cancer cell lines which showed ΔT/C<−30% were classified as shrinkage lines)
SEKI; [6]
  ΔT/C: 110%
SEKI; [7]
  Classification: Proliferation line (cancer cell lines which showed 10%<ΔT/C were classified as proliferation lines)
FEM; [6]
  ΔT/C: 55%
FEM; [7]
  Classification: Proliferation line (cancer cell lines which showed 10%<ΔT/C were classified as proliferation lines)
DLD-1; DLD-1, Large bowel cancer, 100 mg/kg twice a day, one week, oral, day 8 vs day 1
  ΔT/C: 52%
DLD-1; DLD-1, class by intensity of antitumor effect (ΔT/C)
  Classification: Proliferation line (cancer cell lines which showed 10%<ΔT/C were classified as proliferation lines)
SK-Mel-2; SK-Mel-2, Melanoma, 100 mg/kg twice a day, one week, oral, day 8 vs day 1
  ΔT/C: −2.5%
SK-Mel-2; SK-Mel-2, class by intensity of antitumor effect (ΔT/C)
  Classification: Rest line (cancer cell lines which showed −30%<ΔT/C<10% were classified as rest lines)
HCT116; HCT116, Large bowel cancer, 100 mg/kg twice a day, one week, oral, day 8 vs day 1
  ΔT/C: 17%
HCT116; HCT116, class by intensity of antitumor effect (ΔT/C)
  Classification: Proliferation line (cancer cell lines which showed 10%<ΔT/C were classified as proliferation lines)
PC-3; PC-3, Prostate cancer, 100 mg/kg twice a day, one week, oral, day 8 vs day 1
  ΔT/C: 54%
PC-3; PC-3, class by intensity of antitumor effect (ΔT/C)
  Classification: Proliferation line (cancer cell lines which showed 10%<ΔT/C were classified as proliferation lines)
HMV-1; HMV-1, Melanoma, 100 mg/kg twice a day, one week, oral, day 8 vs day 1
  ΔT/C: 19%
HMV-1; HMV-1, class by intensity of antitumor effect (ΔT/C)
  Classification: Proliferation line (cancer cell lines which showed 10%<ΔT/C were classified as proliferation lines)
SW620; SW620, Large bowel cancer, 100 mg/kg twice a day, one week, oral, day 8 vs day 1
  ΔT/C: 22%
SW620; SW620, class by intensity of antitumor effect (ΔT/C)
  Classification: Proliferation line (cancer cell lines which showed 10%<ΔT/C were classified as proliferation lines)
AsPC-1 [4]; AsPC-1, Pancreatic cancer, 100 mg/kg twice a day, one week, oral, day 8 vs day 1
  ΔT/C: −8%
AsPC-1 [4]; AsPC-1, class by intensity of antitumor effect (ΔT/C)
  Classification: Rest line (cancer cell lines which showed −30%<ΔT/C<10% were classified as rest lines)

## CCN(CC)CCNC(=O)c1c(C)[nH]c(/C=C2\C(=O)Nc3ccc(F)cc32)c1C [Compound 2, 5-(5-fluoro-2-oxo-1,2-dihydroindole-3-ylidenemethyl)-2,4-dimethyl-1H-pyrrole-3-carboxylic acid (2-diethylaminoethyl)amide, reference compound]
H526 [1]; [8]
  tumor proliferation: delayed
AsPC-1 [3]; [8]
  tumor proliferation: rested

## bevacizumab: human anti-VEGF monoclonal antibody sold by Genentech as Avastin
Colorectal cancer
  antitumor effect: shown an antitumor effect
